The values that follow come from patent US20170305922A1, “CARM1 INHIBITORS AND USES THEREOF” (Epizyme, Inc., priority 2014, published 2017).

Structures are written as SMILES.

One assay has as its target T1, Human CARM1 (PRMT4) (Homo sapiens, UniProt Q86X55).
T1 construct: Flag-CARM1-His was eluted with 200 ug/ml FLAG peptide in buffer A; made in house; host or cells: HEK 293F cells infected with recombinant baculovirus (pFastBacMam)
T1 sequence (Q86X55 1-585 isoform Q86X55-1): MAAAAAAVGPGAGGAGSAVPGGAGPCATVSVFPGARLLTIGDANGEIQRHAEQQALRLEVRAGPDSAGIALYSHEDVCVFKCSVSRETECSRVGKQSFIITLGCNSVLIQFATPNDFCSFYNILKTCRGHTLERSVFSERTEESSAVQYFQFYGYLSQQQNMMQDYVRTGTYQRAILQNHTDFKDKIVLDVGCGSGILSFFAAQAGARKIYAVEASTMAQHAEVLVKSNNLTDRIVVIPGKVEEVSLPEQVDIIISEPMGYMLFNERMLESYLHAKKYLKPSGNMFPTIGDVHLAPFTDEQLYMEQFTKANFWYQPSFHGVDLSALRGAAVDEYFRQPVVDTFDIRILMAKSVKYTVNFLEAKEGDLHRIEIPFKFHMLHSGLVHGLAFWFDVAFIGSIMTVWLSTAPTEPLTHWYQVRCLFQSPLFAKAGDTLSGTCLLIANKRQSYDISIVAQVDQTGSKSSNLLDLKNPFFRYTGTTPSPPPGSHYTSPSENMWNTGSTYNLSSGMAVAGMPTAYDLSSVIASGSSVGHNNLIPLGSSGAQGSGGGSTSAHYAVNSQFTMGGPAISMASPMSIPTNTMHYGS
Nature of the assay: CARM1 enzyme assay on peptide substrates (3H-SAM Flashplate). Conditions: Biochemical assay; CARM1 0.25 nM, 3H-SAM 30 nM, peptide 250 nM; read-out: Biochem IC50.

For assay [1], the system named is asymmetric di-methyl PABP1 in RKO cells. Description: RKO methylation assay: In Cell Western (ICW) for asymmetric di-methyl PABP1 (PABP1me2a). Conditions: Homo sapiens, RKO, 48 h, Cellular-based (PABP1me2a) ICW (In Cell Western) assay. The gist of the method: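 In-cell western on compound-exposed RKO cells (48 hours): asymmetric di-methyl PABP1 detected by antibody at 800 nm, DNA content by DRAQ5 at 700 nm. Percent inhibition from signal ratios against DMSO (minimum) and 20 μM reference compound (maximum) wells; IC50 curves fitted from triplicates.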

Consider `CNC[C@@H](O)COc1ccc(Cl)c(-c2nc(-c3c(C)noc3C)c(C)c(N3Cc4cc(C)nc(C)c4C3)n2)c1` [Example 102], for which the IC50 stood at 4.5 nM at Human CARM1 (PRMT4) and 27 nM in assay [1].
In the case of `CNC[C@@H](O)COc1ccc(Cl)c(-c2nc(-c3cnn(C4CC4)c3)c(C)c(-c3c(C)noc3C)n2)c1` [Example 103], the IC50 at Human CARM1 (PRMT4) was 8.1 nM; in assay [1], 130 nM.
With `CNC[C@@H](O)COc1ccc(Cl)c(-c2nc(-c3c(C)noc3C)c(C)c(N3C[C@@H]4C[C@H]3CN4C(=O)OC)n2)c1` [Example 104], the results for the IC50 (at Human CARM1 (PRMT4); in assay [1]) were 10.8 nM and 368 nM, respectively.
As to `CNC[C@@H](O)COc1ccc(Cl)c(-c2nc(-c3c(C)noc3C)c(C)c(N3Cc4cnc(N5CCC5)nc4C3)n2)c1` [Example 105], the IC50 at Human CARM1 (PRMT4) was determined as 3.2 nM; in assay [1] it was 11 nM.
On to `CNC[C@@H](O)COc1ccc(Cl)c(-c2nc(-c3c(C)noc3C)c(C)c(N3Cc4cnc(OCCOC)nc4C3)n2)c1` [Example 106], for which the IC50 at Human CARM1 (PRMT4) is 5.5 nM; in assay [1], 25 nM.
The matching figures for `CNC[C@@H](O)COc1ccc(Cl)c(-c2nc(CCC3CCN(C(=O)OC)CC3)c(C)c(-c3c(C)noc3C)n2)c1` [Example 107]: 11.2 nM and 176 nM.
The matching figures for `CNC[C@@H](O)COc1ccc(Cl)c(-c2nc(-c3c(C)noc3C)c(C)c(N3CC4(CCN4CC(F)F)C3)n2)c1` [Example 108]: 18.3 nM and 164 nM.
With `CNC[C@@H](O)COc1ccc(Cl)c(-c2nc(-c3c(C)noc3C)c(C)c(N3Cc4cnn(CC(=O)N(C)C)c4C3)n2)c1` [Example 109], the IC50 on Human CARM1 (PRMT4) amounted to 6.4 nM; in assay [1], 2840 nM.
Turning to `CNC[C@@H](O)COc1ccc(Cl)c(-c2nc(-c3c(C)noc3C)c(C)c(N3Cc4cnn(CCOC)c4C3)n2)c1` [Example 110], the figures for the IC50 (on Human CARM1 (PRMT4); in assay [1]) were 4.8 nM and 52 nM, respectively.
The matching figures for `CNC[C@@H](O)COc1ccc(Cl)c(-c2nc(-c3c(C)noc3C)c(C)c(N3CC4(CC(S(C)(=O)=O)C4)C3)n2)c1` [Example 111]: 11.2 nM and 822 nM.
Take `CNC[C@@H](O)COc1ccc(Cl)c(-c2nc(-c3c(C)noc3C)c(C)c(N3Cc4cn(CCOC)nc4C3)n2)c1` [Example 112]: the values for the IC50 (on Human CARM1 (PRMT4); in assay [1]) were 7.2 nM and 66 nM, respectively.
With `CNC[C@@H](O)COc1ccc(Cl)c(-c2nc(-c3c(C)noc3C)c(C)c(N3Cc4cn(CC(=O)N(C)C)nc4C3)n2)c1` [Example 113], the IC50 was determined as 8.8 nM on Human CARM1 (PRMT4) and 1150 nM in assay [1].
With `CNC[C@@H](O)COc1ccc(Cl)c(-c2nc(-c3c(C)noc3C)c(C)c(N3Cc4cn(C(CO)CO)nc4C3)n2)c1` [Example 114], the IC50 at Human CARM1 (PRMT4) is 7.8 nM; in assay [1], 5850 nM.
The matching figures for `CNC[C@@H](O)COc1ccc(Cl)c(-c2nc(-c3c(C)noc3C)c(C)c(N3Cc4cnn(C(CO)CO)c4C3)n2)c1` [Example 115]: 9.9 nM and 9130 nM.
On to `CNC[C@@H](O)COc1ccc(Cl)c(-c2nc(-c3c(C)noc3C)c(C)c(N3CC4(CCN(CC(F)(F)F)C(=O)O4)C3)n2)c1` [Example 116], for which the values for the IC50 (at Human CARM1 (PRMT4); in assay [1]) were 13.8 nM and 339 nM, respectively.
Regarding `CNC[C@@H](O)COc1ccc(Cl)c(-c2nc(-c3c(C)noc3C)c(C)c(N3Cc4cnc(SC)nc4C3)n2)c1` [Example 117], the figures for the IC50 (on Human CARM1 (PRMT4); in assay [1]) were 3.9 nM and 31 nM, respectively.
The matching figures for `CNC[C@@H](O)COc1ccc(Cl)c(-c2nc(-c3cnn(CC(F)(F)F)c3)c(C)c(-c3c(C)noc3C)n2)c1` [Example 118]: 9 nM and 428 nM.
With `CNC[C@@H](O)COc1ccc(Cl)c(-c2nc(-c3cnn(CC(F)F)c3)c(C)c(-c3c(C)noc3C)n2)c1` [Example 119], the values for the IC50 (at Human CARM1 (PRMT4); in assay [1]) were 7.6 nM and 340 nM, respectively.
The matching figures for `CNC[C@@H](O)COc1ccc(Cl)c(-c2nc(-c3c(C)noc3C)c(C)c(N3C[C@@H]4C[C@H]3CN4CC(F)(F)F)n2)c1` [Example 120]: 8.8 nM and 389 nM.
With `CNC[C@@H](O)COc1ccc(Cl)c(-c2nc(CCC3CN(C(=O)OC)C3)c(C)c(-c3c(C)noc3C)n2)c1` [Example 121], the concentration for half-maximal inhibition (IC50) was determined as 13.4 nM on Human CARM1 (PRMT4) and 257 nM in assay [1].
Take `CNC[C@@H](O)COc1ccc(Cl)c(-c2nc(-c3c(C)noc3C)c(C)c(-n3ncc4c3CN(C(=O)OC)C4)n2)c1` [Example 122]: the IC50 amounted to 13.7 nM on Human CARM1 (PRMT4) and 1810 nM in assay [1].
As for `CNC[C@@H](O)COc1ccc(Cl)c(-c2nc(-c3c(C)noc3C)c(C)c(N3Cc4cccnc4C3C)n2)c1` (stereo partly shown) [Example 123], the 50% inhibitory concentration (IC50) on Human CARM1 (PRMT4) was 3.4 nM; in assay [1], 163 nM.
On to `CNC[C@@H](O)COc1ccc(Cl)c(-c2nc(-c3c(C)noc3C)c(C)c(N3Cc4ccncc4C3C)n2)c1` (stereo partly shown) [Example 124], for which the IC50 at Human CARM1 (PRMT4) was 5.2 nM; in assay [1], 175 nM.
Consider `CNC[C@@H](O)COc1ccc(Cl)c(-c2nc(-c3c(C)noc3C)c(C)c(N3Cc4cnn(C5COC5)c4C3)n2)c1` [Example 125], for which the IC50 on Human CARM1 (PRMT4) was determined as 6.5 nM; in assay [1], 150 nM.
Take `CNC[C@@H](O)COc1ccc(Cl)c(-c2nc(-c3c(C)noc3C)c(C)c(N3Cc4cn(C5COC5)nc4C3)n2)c1` [Example 126]: the IC50 at Human CARM1 (PRMT4) was 6.2 nM; in assay [1], 157 nM.
In the case of `CNC[C@@H](O)COc1ccc(Cl)c(-c2nc(-c3c(C)noc3C)c(C)c(N3Cc4cnc(OCC(F)F)nc4C3)n2)c1` [Example 127], the IC50 at Human CARM1 (PRMT4) was 7.8 nM; in assay [1], 32 nM.
The matching figures for `CNC[C@@H](O)COc1ccc(Cl)c(-c2nc(-c3c(C)noc3C)c(C)c(N3CC4(CCC(OCCOC)CC4)C3)n2)c1` [Example 128]: 16.3 nM and 99 nM.
`CNC[C@@H](O)COc1ccc(Cl)c(-c2nc(-c3c(C)noc3C)c(C)c(N3Cc4cn(C)nc4C3)n2)c1` [Example 129]: the figures for the IC50 (on Human CARM1 (PRMT4); in assay [1]) were 7.7 nM and 46 nM, respectively.
The matching figures for `CNC[C@@H](O)COc1ccc(Cl)c(-c2nc(-c3c(C)noc3C)c(C)c(N3C[C@H]4C[C@@H]3CN4C(=O)OC)n2)c1` [Example 130]: 5.9 nM and 960 nM.
Regarding `CNC[C@@H](O)COc1ccc(Cl)c(-c2nc(-c3c(C)noc3C)c(C)c(N3C[C@H]4C[C@@H]3CN4CC(F)F)n2)c1` [Example 131], the figures for the 50% inhibitory concentration (IC50) (on Human CARM1 (PRMT4); in assay [1]) were 9 nM and 612 nM, respectively.
In the case of `CNC[C@@H](O)COc1ccc(Cl)c(-c2nc(-c3c(C)noc3C)c(C)c(N3CC4(CC(OC(C)C)C4)C3)n2)c1` [Example 133], the IC50 stood at 9.9 nM on Human CARM1 (PRMT4) and 42 nM in assay [1].
For the compound `CNC[C@@H](O)COc1ccc(Cl)c(-c2nc(-c3c(C)noc3C)c(C)c(N3CC4(CC(OCC(F)F)C4)C3)n2)c1` [Example 134], the IC50 on Human CARM1 (PRMT4) is 8.5 nM; in assay [1], 45 nM.
For the compound `CNC[C@@H](O)COc1ccc(Cl)c(-c2nc(-c3c(C)noc3C)c(C)c(N3Cc4cnn(C5CCOCC5)c4C3)n2)c1` [Example 135], the values for the IC50 (at Human CARM1 (PRMT4); in assay [1]) were 4.6 nM and 93 nM, respectively.
The matching figures for `CNC[C@@H](O)COc1ccc(Cl)c(-c2nc(-c3c(C)noc3C)c(C)c(N3Cc4cn(C5CCOCC5)nc4C3)n2)c1` [Example 136]: 5.1 nM and 172 nM.
The matching figures for `CNC[C@@H](O)COc1ccc(Cl)c(-c2nc(-c3c(C)noc3C)c(C)c(N3C[C@@H]4C[C@H]3CN4CC(F)F)n2)c1` [Example 137]: 8 nM and 311 nM.
The matching figures for `CNC[C@@H](O)COc1ccc(Cl)c(-c2nc(-c3c(C)noc3C)c(C)c(-n3cc4c(n3)CN(C(=O)OC)C4)n2)c1` [Example 139]: 5.2 nM and 131 nM.
In the case of `CNC[C@@H](O)COc1ccc(Cl)c(-c2nc(-c3c(C)noc3C)c(C)c(N3CC4(CC(F)C4)C3)n2)c1` [Example 140], the IC50 at Human CARM1 (PRMT4) came to 4.2 nM; in assay [1] it was 241 nM.
The matching figures for `CNC[C@@H](O)COc1ccc(Cl)c(-c2nc(-c3c(C)noc3C)c(C)c(N3CC4(CC(Cl)C4)C3)n2)c1` [Example 141]: 3.7 nM and 173 nM.
For the compound `CNC[C@@H](O)COc1ccc(Cl)c(-c2nc(-c3c(C)noc3C)c(C)c(N3Cc4cnc(C)cc4[C@@H]3C)n2)c1` [Example 142], the half-maximal inhibitory concentration (IC50) amounted to 3.6 nM on Human CARM1 (PRMT4) and 65 nM in assay [1].
For `CNC[C@@H](O)COc1ccc(Cl)c(-c2nc(-c3c(C)noc3C)c(C)c(N3Cc4cnc(N5CC(F)(F)C5)nc4C3)n2)c1` [Example 143], the IC50 is 2.8 nM at Human CARM1 (PRMT4) and 15 nM in assay [1].
Consider `CNC[C@@H](O)COc1ccc(Cl)c(-c2nc(-c3c(C)noc3C)c(C)c(N3Cc4cnc(N5CCOCC5)nc4C3)n2)c1` [Example 144], for which the results for the IC50 (at Human CARM1 (PRMT4); in assay [1]) were 3.3 nM and 22 nM, respectively.
